Test results: patent US20230226135A9, “ACETYLCHOLINE MODULATION OF IMMUNE FUNCTION” (BCell Solutions, Inc., priority 2019, published 2023)

How the values were obtained:
[1] = tested on: splenic B cells; assay: alpha 7 nAChR expression on splenic B cells after TLR 9 agonist CpG (flow cytometry); format: cell-based, mouse; conditions: after CpG treatment
Description: Cell Culture. Mice were sacrificed and spleens were removed. The tissues were dissociated, from which single cell suspensions were made by passing the spleens through 40 μm cell strainers. Red blood cells were lysed using ACK Buffer (Sigma, Inc). Cells were then cultured with TLR ligands at the designated concentrations at 1.010^6 cells/mL in 6 well plates. Cells were grown in RPMI 1640 (Invitrogen) supplemented with 5% fetal bovine serum (Invitrogen) in a humidified 5% CO2 incubator at 37° C. for the designated time period.
Isolation of Splenic Cells. Splenocytes were isolated from 8 week old C57BL/6J mice. Following sacrifice, spleens were removed and splenocytes isolated as above. Cells were then resuspended in complete RPMI and were cultured with the TLR ligands at the designated concentrations at 10^6 cells/mL in 6 well plates. […]
Antibodies and Flow Cytometry. […] Following staining, cells were analyzed comparing each level of staining to the appropriate isotype control on a Beckman Coulter Cytoflex benchtop flow cytometer. Data was analyzed using FlowJo software (Tree Star Inc.).
In FIG. 1A the X-axis represents fluorescence intensity of MHC class II expression on untreated splenic B cells from a C57BL6 mouse. […] The X axis reflects the relative fluorescence intensity before (green histogram) and after treatment with the TLR 9 agonist CpG (blue histogram).

[2] = Dosing formulation storage and stability; format: physicochemical; conditions: 0.6 mg/mL in saline, frozen at -20 C
Description: Test Article Formulation Instructions & Calculations: Peptide dosing solution (0.2 mg/mL) was made fresh daily within 1 hour of use by diluting 0.09 mL of 5 mg/mL DMSO stock into 2.11 mL sterile saline. DMSO stock was kept at 4 C, then refrozen (to avoid repeated freeze-thaw cycles). Still, stock was relatively “solid” even at 4 C.
MLA antagonist dosing solution (0.6 mg/mL) was made on Day 2 by diluting the entire 5 mg in the sealed vial with 8.3 mL of sterile saline and aliquoting out ˜1.1 mL in each of seven 2 mL cryovials and freezing at −20 C. Four vials were used in the experiment, each thawed within 1 hour of use. Three vials remain frozen.
Dosing Formulations and Vehicle Storage & Stability: Saline vehicle is stable at 4 C for months. Peptide dosing solutions were made up and used fresh daily. […] MLA frozen “stock” solutions were stable for up to 1 month.

[3] = tested on: CLIP+ B cells; assay: CFA-induced arthritis model, CAP depletion of B cells with or without α7nAChR antagonist; format: in vivo, mice; conditions: co-treated with CAP, CFA model
Description: FIGS. 11A-11B. […] In this study, CAP was administered at 3 days after CFA, then once daily every 3 days, until day 10 after CFA.
The next series of experiments are focused on the effects of CAP on splenic immune cells. […] As part of this experiment, the mice were co-treated with CAP and the alpha-7 nicotinic acetylcholine receptor (α7nAChR) antagonist, methyllycaconitine (MCA).

[4] = tested on: CD8+ T cells; assay: CAP-induced expansion of CD8+ T cells with or without α7nAChR antagonist; format: in vivo; conditions: with CAP
[5] = tested on: splenic B cells; assay: CFA-sensitized mice treated with Peptide with or without MLA, FACS of splenic B cells; format: in vivo
Description: SUMMARY: A study was conducted to evaluate a potential alpha7 nAChR anti-inflammatory mechanism of the MKR-4 peptide, using the alpha7 nAChR antagonist methyllycaconitine (MLA). After enrollment, animals in Groups 2-4 were sensitized ID at the base of the tail with 0.1 mL FCA on Day 1. On Days 2, 3, 5 & 7 Groups were then dosed intraperitoneally (IP) with either: peptide and MLA in combination (2 mg/kg and 6 mg/kg, respectively); peptide (2 mg/kg) and MLA vehicle (saline) in combination; or peptide vehicle (saline) and MLA vehicle (saline). Animals were dosed once on Study Day 2 (MLA or MLA vehicle), and Days 3, 5 & 7 (Peptide or Peptide vehicle, MLA or MLA vehicle) as described in Table 2 below. Body weights were recorded on Study Days 0 & 8. Mice were euthanized for necropsy on Study Day 8, and serum and whole spleens were collected from all animals and sent to the sponsor for internal FACS analysis. Toxicity and Peptide mechanistic evaluation was based on absolute body weight change, spleen weights and sponsor FACS analysis (not included in report).
Antibodies and Flow Cytometry. Single cell suspensions were made of tissues or cells harvested from culture and stained with the following monoclonal antibodies: a monoclonal antibody directed against mouse alpha 7 nicotinic acetylcholine receptor (alpha 7 nAChR) (Santa Cruz Biotechnology); anti-mouse MHC Class II (M5114), and anti-mouse CLIP 15G4, Santa Cruz. Following staining, cells were analyzed comparing each level of staining to the appropriate isotype control on a Beckman Coulter Cytoflex benchtop flow cytometer. Data was analyzed using FlowJo software (Tree Star Inc.).
Experimental Design: On Study Day 0, mice were weighed and randomized by body weight into treatment groups. Following randomization, on Study Day 1, Groups 2-4 were sensitized ID at the base of the tail with 0.1 mL of FCA. When MLA and Peptide (FRIMAVLAS (SEQ ID NO: 389))—or their vehicles—were dosed on the same day, the MLA antagonist or vehicle was dosed 1 hour before the Peptide or its vehicle.
On Study Day 8, mice were anesthetized with Isoflurane (VetOne, Cat #502017) and bled to exsanguination followed by cervical dislocation for necropsy and tissue collection.

[6] = tested on: blood brain barrier (BBB); assay: Intravital microscopy of BBB permeability and lymphocyte adhering/rolling in pial venules; format: in vivo, C57 BL/6J mice; conditions: P3C i.p., 24 hours
Description: Whether intranasal infection with Streptococcus pyogenes would induce blood-brain barrier permeability in C57 BL/6J mice by a TLR-dependent mechanism was examined. Immediately following craniotomy, mice were placed under an intravital microscope to study vascular permeability and leukocytes. Permeability of cerebral blood vessels was observed using FITC-dextran fluorescent dye and, tracing of leukocytes is observed by labeling such cells with Rhodamine-6G. Intranasal infection with Streptococcus pyogenes (gram positive) increased BBB permeability (FIG. 4) and the number of adherent or rolling lymphocytes (FIG. 4) within 24 hours post-infection, compared to saline treated controls.
Methods: To test the hypothesis that intranasal infection may increase BBB permeability, we exposed mice to GAS via intranasal infection with Streptococcus pyogenes (GAS). We assessed BBB permeability using intravital microscopy, and we characterized the immune response to GAS using flow cytometric analysis of nasal associated lymphoid tissue (NALT), spleen, and brain.
Intranasal infection: Isoflurane gas was employed to briefly anesthetize mice (1-2 minutes). Once anesthetized, 7.5 uL of streptococcal bacterial suspension (OD600=0.5-0.6) was placed on each nares (outer nostril) of mouse. Control mice received intranasal inoculation with vehicle (PBS). The droplets were inhaled into nasal sinuses. This small volume avoids inoculation of the lungs, but reproducibly results in colonization of nasal-associated lymphoid tissue (NALT, Park 2003; Wang 2010).
Intraperitoneal injection: The TLR 1/2 agonist, Pam-3-Cys (25 ug/mouse; Pam3CSK4, InvivoGen, San Diego Calif.) was intraperitoneally (right side) injected into mice 24 hours before intravital microscopy. P3C causes immune cell activation and polycolonal expansion of B-lymphocytes by Toll-Like receptor ligation (Newell 2010). Control mice received equal volume of vehicle (PBS) intraperitoneally.
MHC class II-targeted proprietary peptide (TPP, Elim Biopharmaceuticals Inc., Hayward Calif.; also see Newell 2010) was administered intraperitoneally (5 ug/mouse, left side), sometimes in conjunction with P3C (right side). TPP was dissolved in DMSO for a final concentration of 2.5% DMSO in PBS. Control mice received vehicle (2.5% DMSO in PBS) intraperitoneally.
Preparation of Mice: Mice were anesthetized with an (i.p.) injection of 50% urethane (Sigma-Aldrich, U2500) in PBS ([…]) and maintained on heating pad. Anesthetic plane was assessed throughout preparation and experiments, by response to toe pinch. If needed, urethane supplement was given at 10% of original dose volume. To prepare mice tails for intravenous (i.v.) dye injection we maintained anesthetized mice on a heating pad for 10-15 minutes, and then briskly wiped tails (toward tail-end) with 70% ethanol wipes to remove scales/hair and increase vasodilation. Immediately following tail wiping, Fluorescein dextran 10 kDa (10 mg/mL, Sigma-Aldrich, FD10S) was administered (2 uL/g mouse) via right lateral tail vein and, Rhodamine 6G (0.2 mg/mL, Sigma-Aldrich, 83697) was administered (1.6 uL/g mouse) via left lateral tail vein. When needed, tail was wiped multiple times to ensure clear visualization of tail veins. Following successful (i.v.) injection of dyes, mice underwent craniotomy.
Craniotomy: A craniotomy (removal of a small area of skull) was performed to expose the cerebrum and allow imaging of cerebral microvasculature (specifically pial vessels of pia mater). First, an incision across the midline of the scalp was made to expose the right parietal bone. The skull was then carefully marked with a waterproof marker, designating the area, 1 mm posterior from the Bregma and 4 mm lateral from the midline, to be removed (craniotomy diameter: 2.5 mm). Next, the craniotomy was performed with a drill ensuring the dura mater was not cut. […]

With 5′-tcgtcgttttgtcgttttgtcgtt-3′ [CpG] the “relative level of expression of nAChR per cell” value [1] was “increases” and the “total splenocytes that express alpha 7 nAChR” value ([1]; untreated 9%) was 37.6%.
In the case of CCN1C[C@]2(COC(=O)c3ccccc3N3C(=O)C[C@H](C)C3=O)CC[C@H](OC)[C@@]34[C@@H]5C[C@H]6[C@H](OC)[C@@H]5[C@](O)(C[C@@H]6OC)[C@@](O)([C@@H](OC)[C@H]23)[C@@H]14 [MLA, methyllycaconitine, reference compound], the “stability of frozen stock solutions” value [2] is reported as “up to 1 month”, the “effect of α7nAChR antagonist on CAP-induced decrease in B cell expansion” value [3] is reported as “reversed” and the “effect of α7nAChR antagonist on CAP-induced decrease in B cell expansion” value ([3]; listed as MCA) is reported as “prevented”. The “effect of α7nAChR antagonist on CAP-induced CD8+ T cell expansion” value [4] was “reversed”, the “effect of α7nAChR antagonist on CAP-induced CD8+ T cell expansion” value ([4]; listed as MCA) was “blocked” and the “effect of MLA on Peptide induced reduction in CLIP+ B cells” value ([5]; CFA treated mice, MLA 6 mg/kg IP 1 hour before Peptide) was “reversed”. For the same compound, the “percentage of splenic B cells” value ([5]; CFA treated, Peptide treated (2 mg/kg) and treated with MLA (6 mg/kg IP)) was 44.8%.
For Pam-3-Cys [P3C, reference compound], the “largest observed diameter of adherent lymphocytes” value [6] was 15 um, the “number of rolling lymphocytes” value ([6]; vs control, p<0.01) was “significantly increased” and the “number of adherent lymphocytes” value ([6]; vs control, p<0.05) was “significantly increased”. The “average diameter of adherent lymphocytes” value ([6]; control 5 um) was 10 um.
